Measurements from US9486534B2, “Niacin conjugated fatty acid mixtures and their uses” (Catabasis Pharmaceuticals, Inc., priority 2009, dated 2016).

Assays:
[1] = tested on: FASN (fatty acid synthase); experiment: Effect on SREBP-1c target genes in HepG2 cells, real time PCR: FASN; type: cell-based; details: HepG2 cells stimulated with oleate, 50 μM, 6 hours, normalized to 18S; FIG. 2
Method: (§1) HepG2 cells (ATCC) were seeded at 20,000 cells per well in 96 well plates. After adhering overnight, growth media (1.0% FBS in DMEM) was removed and cells were serum starved for 24 hours in DMEM containing 1% fatty acid free bovine serum albumin (BSA, Sigma). […] Cells were incubated for 6 hours and then washed with PBS. RNA was reverse-transcribed using the cells to cDNA reagents according to standard protocols (outlined in Applied Biosystem StepOne Real-time PCR protocols). Real time PCR of transcripts was performed with Taqman assays for the three specific genes FASN (fatty acid synthase), SCD (steroyl CoA desaturase) and ApoA1 (apolipoprotein A1). In all three cases, 18S-VIC® was used as a normalization control.

[2] = tested on: SCD (steroyl CoA desaturase); experiment: Effect on SREBP-1c target genes in HepG2 cells, real time PCR: SCD; type: cell-based; details: HepG2 cells stimulated with oleate, 50 μM, 6 hours, normalized to 18S; FIG. 2
Method: as §1

[3] = tested on: ApoA1 (apolipoprotein A1); experiment: Effect on SREBP-1c target genes in HepG2 cells, real time PCR: ApoA1; type: cell-based; details: HepG2 cells stimulated with oleate, 50 μM, 6 hours, normalized to 18S; FIG. 2
Method: as §1

[4] = tested on: ApoB secretion in HepG2 cells; details: 3 concentrations (50, 100 and 200 μM), compared to niacin at 5 mM, FIG. 1
Method: HepG2 cells (ATCC) are seeded at 10,000 cells per well in 96 well plates. After adhering overnight, growth media (10% FBS in DMEM) is removed and cells are serum starved for 24 hours in DMEM containing 0.1% fatty acid free bovine serum albumin (BSA, Sigma). Cells are then treated with a compound. Niacin at 5 mM is used as a positive control. All treatments are performed in triplicate. Simultaneous with compound treatment, ApoB secretion is stimulated with addition of 0.1 oleate complexed to fatty acid free BSA in a 5:1 molar ratio. Incubation with a compound and oleate is conducted for 24 hours. Media supernatants are removed and ApoB concentrations are measured using ELISA kits (Mabtech AB). Percent inhibition of ApoB secretion is determined by normalizing data to vehicle treated wells. For a given compound, an IC50 (concentration at which 50% of ApoB secretion is inhibited) can also be determined by using a 4 parameter-fit inhibition curve model (Graph Pad Prism®). In each experiment, cell viability is determined using the ATPlite 1-Step kit (Perkin Elmer), such that compound effects due to cytotoxicity can be monitored.
The level of ApoB secretion was compared to that of niacin, evaluated at 5 mM concentration.

Structure (SMILES) | FASN gene expression [1] | SCD gene expression [2] | ApoA1 gene expression [3] | inhibition of ApoB secretion [4]
CC/C=C\C/C=C\C/C=C\C/C=C\C/C=C\CCCC(=O)NCCNC(=O)c1cccnc1 [I-8, N-(2-(5Z,8Z,11Z,14Z,17Z)-eicosa-5,8,11,14,17-pentaenamidoethyl)nicotinamide] | statistically significant inhibition | statistically significant inhibition | increase | –
CC/C=C\C/C=C\C/C=C\C/C=C\C/C=C\C/C=C\CCC(=O)NCCNC(=O)c1cccnc1 [I-7, N-(2-(4Z,7Z,10Z,13Z,16Z,19Z)-docosa-4,7,10,13,16,19-hexaenamidoethyl)nicotinamide] | statistically significant inhibition | statistically significant inhibition | increase | significant inhibition
